Data from patent US20130023540A1, “TREATMENT OF MASTITIS” (BAYER HEALTHCARE AG, priority 2004, published 2013).

Test: investigation of the substances having an antibacterial effect in bovine milk following parenteral administration of enrofloxacin
Format: in vivo

Row | Compound | proportion in the milk [%] | antibacterial activity in bovine milk (enrichment of active compounds as compared with the serum concentration)
1 | O=C(O)c1cn(C2CC2)c2cc(N3CCNCC3)c(F)cc2c1=O [ciprofloxacin, 1-cyclopropyl-7-(1-piperazinyl)-6-fluoro-1,4-dihydro-4-oxo-3-quinolonecarboxylic acid] | ~90 | –
2 | CCN1CCN(c2cc3c(cc2F)c(=O)c(C(=O)O)cn3C2CC2)CC1 [enrofloxacin, 1-cyclopropyl-7-(4-ethyl-1-piperazinyl)-6-fluoro-1,4-dihydro-4-oxo-3-quinolone-carboxylic acid] | ~10 | high antibacterial activity
